The subject of assay [1] is Aedes aegypti. The assay is described as follows: Insecticidal activity against first-instar larval stage of Aedes aegypti assessed as mortality at 50 ppm after 24 hr. It is filed as functional.
The subject of another assay is Fusarium oxysporum. The assay is described as follows: Antifungal activity against Fusarium oxysporum assessed as growth inhibition at 0.3 to 30 uM after 48 to 72 hr by 96-well microdilution broth assay. It is filed as functional, organism-based. A general note: Broth dilution looks for growth in wells or tubes with falling amounts of substance.
Assay [2] relates to Aedes aegypti. The assay is described as follows: Insecticidal activity against first-instar larval stage of Aedes aegypti assessed as mortality at 25 ppm after 24 hr. It is filed as functional.
For a further assay, the system named is Diaporthe ampelina. The assay is described as follows: Antifungal activity against Diaporthe ampelina assessed as growth inhibition at 30 uM after 144 hr by 96-well microdilution broth assay. It counts as functional. The settings on record: read-out: GI.
Assay [3] relates to Aedes aegypti. The assay is described as follows: Insecticidal activity against first-instar larval stage of Aedes aegypti assessed as mortality at 1.6 ppm after 24 hr. It is filed as functional, organism-based.
For assay [4], the system named is Aedes aegypti. The assay is described as follows: Insecticidal activity against first-instar larval stage of Aedes aegypti assessed as mortality at 0.8 ppm after 48 hr. It is filed as functional.
The test system of assay [5] is Aedes aegypti. The assay is described as follows: Insecticidal activity against first-instar larval stage of Aedes aegypti assessed as mortality at 0.8 ppm after 24 hr. It is filed as functional, organism-based.
In assay [6] the test system is Aedes aegypti. The assay is described as follows: Insecticidal activity against first-instar larval stage of Aedes aegypti assessed as mortality after 48 hr. It counts as functional.
In assay [7] the test system is Aedes aegypti. The assay is described as follows: Insecticidal activity against first-instar larval stage of Aedes aegypti assessed as mortality after 24 hr. It is filed as functional.
In the next assay the test system is Colletotrichum fragariae. The assay is described as follows: Antifungal activity against Colletotrichum fragariae assessed as growth inhibition at 0.3 to 30 uM after 48 to 72 hr by 96-well microdilution broth assay. It is filed as functional, organism-based.
The subject of assay [8] is Aedes aegypti. The assay is described as follows: Insecticidal activity against female adult Aedes aegypti fed on CPDA-1+ATP assessed as biting deterrence activity at 25 nmol/cm2 by six-celled K & D module bioassay. It counts as functional.
Assay [9] relates to Aedes aegypti. The assay is described as follows: Insecticidal activity against first-instar larval stage of Aedes aegypti assessed as mortality at 100 ppm after 24 hr. It is filed as functional.
Another assay relates to Botrytis cinerea. The assay is described as follows: Antifungal activity against Botryotinia fuckeliana assessed as growth inhibition at 0.3 to 30 uM after 48 to 72 hr by 96-well microdilution broth assay. It counts as functional, organism-based.
Assay [10] concerns Aedes aegypti. The assay is described as follows: Insecticidal activity against first-instar larval stage of Aedes aegypti assessed as mortality at 1.6 ppm after 48 hr. It is filed as functional.
For assay [11], the system named is Colletotrichum gloeosporioides. The assay is described as follows: Antifungal activity against Colletotrichum gloeosporioides assessed as growth inhibition at 0.3 to 30 uM after 48 to 72 hr by 96-well microdilution broth assay. It counts as functional, organism-based.
For another assay, the system named is Phomopsis obscurans. The assay is described as follows: Antifungal activity against Phomopsis obscurans assessed as growth inhibition at 30 uM after 144 hr by 96-well microdilution broth assay. It is filed as functional. The conditions noted are these: Paraphomopsis obscurans, read-out: GI.
A further assay deals with Colletotrichum acutatum. The assay is described as follows: Antifungal activity against Colletotrichum acutatum assessed as growth inhibition at 0.3 to 30 uM after 48 to 72 hr by 96-well microdilution broth assay. It is filed as functional, organism-based.

Structures are written as SMILES. ≈ marks a conversion by molar mass, not a printed value. Calls of active or inactive are those of the source. The rule behind the calls is not given here.

As usually defined, the mortality is the share of the test organisms that died.

With `CC(C)c1ccc(/C=N\NC(=O)CCC2CCCCC2)cc1`, the mortality at 50 ppm in the assay with Aedes aegypti [1] came out at 70%. For the same compound, the “growth inhibition (GI)” value (in the assay with Fusarium oxysporum; in the assay with Colletotrichum fragariae; with Botrytis cinerea; in assay [11]; in the assay with Colletotrichum acutatum) was “inactive” throughout. Further, the mortality at 25 ppm in the assay on Aedes aegypti [2] turned out to be 30%. Moreover, the inhibition of growth at 30 µM with Diaporthe ampelina amounted to 94%; in the assay on Phomopsis obscurans, 99.5%. The outcome in the assay with Aedes aegypti [3] and with Aedes aegypti [5] was inactive. Also, in the assay with Aedes aegypti [4], the mortality at 0.8 ppm stood at 4%. Also, the LD90 with Aedes aegypti [6] is given as 19.1 ppm; with Aedes aegypti [7] it was 297.8 ppm. For the same compound, the LC50 in the assay with Aedes aegypti [6] (Aedes aegypti, Instar larval stage, 48 h, read-out: LD50 (the source's name)) was 4.35 µg/mL (≈ 14.5 µM); in the assay on Aedes aegypti [7] (Aedes aegypti, Instar larval stage, 24 h, read-out: LD50 (the source's name)) it was 57.4 µg/mL (≈ 191 µM). Moreover, the Activity in the assay on Aedes aegypti [8] is 22%. For the same compound, the mortality at 100 ppm in the assay on Aedes aegypti [9] was determined as 80%. In addition, the mortality at 1.6 ppm in the assay on Aedes aegypti [10] worked out at 14.7%.

As to `Cc1ccc(/C=N\NC(=O)CCC2CCCCC2)cc1`, the “growth inhibition (GI)” value (in the assay with Fusarium oxysporum; in the assay with Colletotrichum fragariae; in the assay on Botrytis cinerea; in [11]; in the assay with Colletotrichum acutatum) was “inactive” throughout. Moreover, the Activity with Aedes aegypti [8] turned out to be 22%. In addition, the inhibition of growth at 30 µM in the assay on Phomopsis obscurans is 86.7%.

Regarding `O=C(CCC1CCCCC1)N/N=C\c1ccc(F)cc1`, the “growth inhibition (GI)” value (in the assay with Fusarium oxysporum; with Colletotrichum fragariae; with Botrytis cinerea; in assay [11]; in the assay with Colletotrichum acutatum) was “inactive” throughout. Also, the inhibition of growth at 30 µM in the assay with Diaporthe ampelina turned out to be 83.6%; in the assay on Phomopsis obscurans, 86.9%.

`O=C(CCC1CCCCC1)N/N=C\c1ccc([N+](=O)[O-])cc1`: the “growth inhibition (GI)” value (with Fusarium oxysporum; in the assay on Colletotrichum fragariae; in the assay with Botrytis cinerea; in assay [11]; in the assay on Colletotrichum acutatum) was “inactive” throughout. The Activity with Aedes aegypti [8] is 22%.

In the case of `O=C(CCC1CCCCC1)N/N=C\c1ccc(Br)cc1`, the “growth inhibition (GI)” value (in the assay on Fusarium oxysporum; with Colletotrichum fragariae; with Botrytis cinerea; in assay [11]; with Colletotrichum acutatum) was “inactive” in each case. Moreover, the Activity with Aedes aegypti [8] is given as over 50%.

With `O=C1C2CC=CCC2C(=O)N1SC(Cl)(Cl)Cl` (centres undefined) [CAPTAN], the inhibition of growth at 30 µM in the assay with Diaporthe ampelina amounted to 99.2%; in the assay with Phomopsis obscurans it was 100%.

As to `CCN(CC)C(=O)c1cccc(C)c1` [DIETHYLTOLUAMIDE], the Activity with Aedes aegypti [8] turned out to be 80%.

`O=C(CCC1CCCCC1)N/N=C\c1ccc(Cl)cc1`: the “growth inhibition (GI)” value (in the assay on Fusarium oxysporum; in the assay with Colletotrichum fragariae; with Botrytis cinerea; in assay [11]; with Colletotrichum acutatum) was “inactive” throughout. For the same compound, the Activity in the assay with Aedes aegypti [8] is over 50%.

Regarding `O=C(CCC1CCCCC1)N/N=C\c1ccccc1`, the “growth inhibition (GI)” value (in the assay on Fusarium oxysporum; in the assay with Colletotrichum fragariae; in the assay with Botrytis cinerea; in assay [11]; in the assay with Colletotrichum acutatum) was “inactive” each time. For the same compound, the Activity in the assay with Aedes aegypti [8] is given as over 50%.

`O=C(CCC1CCCCC1)N/N=C\c1ccc(O)cc1`: the “growth inhibition (GI)” value (in the assay on Fusarium oxysporum; in the assay with Colletotrichum fragariae; with Botrytis cinerea; in [11]; in the assay with Colletotrichum acutatum) was “inactive” throughout. In addition, in the assay with Aedes aegypti [8], the Activity was 22%.

With `CN(C)c1ccc(/C=N\NC(=O)CCC2CCCCC2)cc1`, the “growth inhibition (GI)” value (in the assay with Fusarium oxysporum; in the assay on Colletotrichum fragariae; in the assay on Botrytis cinerea; in [11]; with Colletotrichum acutatum) was “inactive” each time. For the same compound, the Activity in the assay with Aedes aegypti [8] is reported as 22%.

As for `COc1ccc(/C=N\NC(=O)CCC2CCCCC2)cc1`, the “growth inhibition (GI)” value (in the assay with Fusarium oxysporum; in the assay on Colletotrichum fragariae; with Botrytis cinerea; in assay [11]; with Colletotrichum acutatum) was “inactive” each time. Also, the Activity in the assay with Aedes aegypti [8] is on record as 22%. For the same compound, the inhibition of growth at 30 µM in the assay with Phomopsis obscurans was found to be 74.1%.

For the origin of these results see ChEMBL document CHEMBL3045460, “Antifungal, mosquito deterrent, and larvicidal activity of N-(benzylidene)-3-cyclohexylpropionic acid hydrazide derivatives” (2013).
